# Measurements reported in patent publication US11771717B2, “Applications of pair-production for improved radiotherapy” (Henry Ford Health System, priority 2017, dated 2023).
# Where two headings read alike, the source gives them in different places.
# System: A549 human lung cancer cells
# Settings: for decreased clonogenic survival at 18 MV compared to 6 MV: Example 2 conclusion; for more cell killing at 18 MV vs 6 MV: Example 3 conclusion; for cell survival decreased using 18 MV photons compared to 6 MV photons, average of 3 experiments: FIG. 2 and FIG. 4, 2 hours before irradiation with 2 Gy, 100 μM sodium phosphotungstate, 4 μg/ml cisplatin, 12 μg/ml carboplatin; for increased cell killing at 18 MV compared to 6 MV, on average: cisplatin 4 μg/ml, carboplatin 12 μg/ml (FIG. 4)
# Experimental: Detailed Methods: The human lung cancer cell line A549 was maintained in tissue culture using standard techniques. A 70% confluent T25 tissue culture flask of A549 in exponential growth phase was trypsinized with 2 mL of 0.05% trypsin solution and deactivated with 3 mL DMEM to produce a 5 mL single cell-suspension. One milliliter of this cell solution was added to 10 mL of DMEM and vortexed to produce a homogenous diluted single cell suspension. Seven 6-well tissue culture plates were prepared with 3 mL of DMEM per well. […] These plates were incubated at 37° C. for 24 hours to allow the cells to settle and the tissue culture wells. The media was then removed from each plate and replaced with: DMEM in 3 plates as non-metal controls (250 cells per well), 100 μM sodium phosphotungstate hydrate DMEM in 2 plates (250 cells per well), 1 mM sodium tungstate dihydrate DMEM in 2 plates (250 cells per well), and 4 μg/mL cisplatin DMEM in 2 plates (1000 cells per well). The media with or without metal compounds was left in the wells to incubate for 1-2 hours prior to irradiation. Six plates were irradiated using a linear accelerator (Varian Trilogy; Varian Corp., Palo Alto, Calif.): one plate each of the DMEM, sodium phosphotungstate hydrate, sodium tungstate dihydrate, and cisplatin were given 209 MU of 6 MV X-rays (2 Gy) and the remaining plates of DMEM, sodium phosphotungstate hydrate, sodium tungstate dihydrate, and cisplatin were irradiated with 239 MU of 18 MV X-rays (2 Gy). The remaining seventh plate was not irradiated and used to calculate plating efficiency of A549. The seven plates then had all media replaced with normal DMEM immediately following irradiation and were incubated for 10 days. When A549 colonies were seen to be equal to or greater than 50 cells by microscopy, the seven plates were stained with crystal violet and counted. The same experiment above was conducted for A549 cells in DMEM media alone with administration of sodium phosphotungstate hydrate after irradiation. Two identical plates were prepared as described above and these were irradiated at 6 or 18 MV in DMEM. The media was removed after irradiation and replaced with 100 μM sodium phosphotungstate hydrate media for one hour before again being replaced with DMEM and incubated for 10 days.
# A549 lung cancer cells were used to create nine 6-well plates under standard methods. The media was then removed from each plate and replaced with: DMEM in 3 plates as non-metal controls (250 cells per well), 100 μM sodium phosphotungstate hydrate DMEM in 2 plates (250 cells per well), 12 μg/ml carboplatin DMEM in 2 plates (1000 cells per well), and 4 μg/ml cisplatin DMEM in 2 plates (1000 cells per well) and incubated for 2-4 hours prior to irradiation. Eight plates were irradiated on a linear accelerator: one plate each of the DMEM, tungsten, carboplatin, and cisplatin was given 2 Gy of 6 MV X-rays and one of each was irradiated with 2 Gy of 18 MV X-rays. The remaining plate was not irradiated and used to calculate plating efficiency of A549. The nine plates were incubated for 10 days, stained with crystal violet, and colonies were counted.
# In vitro studies were conducted with the A549 cell line, a human lung adenocarcinoma cultured from the tumor of a person by Giard in 1972. Clonogenic survival studies were done without irradiation or metal compound to measure plating efficiency. Cells were then exposed to 100 μM tungsten compound for 4 hours and seeded into 6 well plates. […] 4 identical plates of cells were then created, 2 containing 100 μM tungsten metal and 2 without metal.
# [1] = Example 2, 2 Gy of 6 MV X-rays, compound in media 1-2 hours prior to irradiation (100 μM sodium phosphotungstate hydrate, 1 mM sodium tungstate dihydrate, 4 μg/mL cisplatin)
# [2] = Example 2, 2 Gy of 18 MV X-rays, compound in media 1-2 hours prior to irradiation (100 μM sodium phosphotungstate hydrate, 1 mM sodium tungstate dihydrate, 4 μg/mL cisplatin)
# [3] = Example 3, 2 Gy of 6 MV X-rays, incubated 2-4 hours prior to irradiation (100 μM tungsten, 4 μg/ml cisplatin, 12 μg/ml carboplatin)
# [4] = Example 3, 2 Gy of 18 MV X-rays, incubated 2-4 hours prior to irradiation (100 μM tungsten, 4 μg/ml cisplatin, 12 μg/ml carboplatin)
Compound,"survival after drug administration without irradiation (100 μM for 4 hours, no irradiation)","cell killing, plates exposed to tungsten after irradiation (Example 2, 100 μM for one hour after irradiation, at either 6 or 18 MV)",average colonies [1] [colonies],survival [1] [%],average colonies [2] [colonies],survival [2] [%],"18 MV result compared to 6 MV, in words (Example 2, 18 MV vs 6 MV, 2 Gy)",decreased clonogenic survival at 18 MV compared to 6 MV (2 Gy),colonies/well [3] [colonies/well],survival [3] [%],colonies/well [4] [colonies/well],survival [4] [%],more cell killing at 18 MV vs 6 MV (2 Gy),"more cell killing compared to 6 MV with or without metal and 18 MV without metal (Example 4, 100 μM, 2 Gy of 18 MV photons)","cell survival decreased using 18 MV photons compared to 6 MV photons, average of 3 experiments","increased cell killing at 18 MV compared to 6 MV, on average (Example 4)","more cell killing compared to 6 MV (Example 2, 18 MV vs 6 MV, 2 Gy, 1 mM)"
sodium phosphotungstate hydrate,greater than 95%,approximately 65%,68,66,35,34,double cell kill,approximately 50%,68,66,35,34,approximately 50%,approximately 50%,48%,,
"N.N.[Cl][Pt][Cl] [cisplatin, reference compound]",,,54,13,29,7,half of that at 6 MV,approximately 50%,54,13,29,7,37%,,approximately 37%,approximately 37%,
O.O.[Na+].[Na+].[O]=[W](=[O])([O-])[O-] [sodium tungstate dihydrate],,,70,68,21,20,,~70%,,,,,,,,,approximately 70%
"N.N.O=C([O-])C1(C(=O)[O-])CCC1.[Pt+2] [carboplatin, reference compound]",,,,,,,,,64,16,40,10,37%,,approximately 37%,approximately 37%,
